Measurements reported in patent US20240327423A1, “A SERIES OF PYRROLE DERIVATIVES AND THEIR PREPARATION METHOD AND THERAPEUTIC USE” (SHENZHEN SUNGENING BIO-MEDICAL CO., LTD, priority 2020, published 2024).
In brackets after ≈: the same amount, converted by molar mass. Where two headings read alike, the source gives them in different places.

Experiments:
[1] = Pharmacokinetic test in SD rats, single oral administration; format: in vivo; settings: SD, rat, plasma, po, 10 mg/kg, single oral administration 10 mg/kg, test compound mixed with F901318, plasma; for AUC: read-out: AUC; for Cmax: read-out: Cmax; for Tmax: read-out: Tmax; for half-life: read-out: T½ (converted)
Experimental: Pharmacokinetic study is performed on SD rats receiving single oral administration of each test compound mixed with F901318 (10 mg/kg, 3 rats per group). Test compounds and F901318 are dissolved with […]+10% solutol+85% saline, vortexed for 1-2 mins and ultra-sonicated for 5-10 mins to form a colorless clear drug solution. The animals are fasted overnight before oral administration, and resumed feeding 4 hours after administration. After oral administration, pharmacokinetic samples are collected from orbital blood of SD rats at 0.083 h, 0.25 h, 0.5 h, 1 h, 2 h, 4 h, 6 h, 8 h, and 24 h, and three whole blood samples are collected at each time point in a volume of 0.2-0.3 mL. Blood samples are placed on ice immediately after collected, and the plasma is separated by centrifugation within 15 min (centrifugation conditions: 8000 rpm, 1 min, and at room temperature).
The collected plasma is stored at −20° C. prior to analysis. Transfer 20 μL of plasma sample into an 0.5 mL EP tube, add 200 μL of working internal standard solution (blank group is without internal standard, using the same volume of solvent instead), vortex and mix for 3 min centrifuge at 13500 rpm for 10 min, take 100 μL of supernatant and analyze with LC-MS/MS.

[2] = Liver microsomal stability test, mouse; format: in vitro ADME; settings: Mouse liver microsomes; for CLint scaled / half-life: 0.5 mg/mL protein, 37° C., NADPH
Experimental: (§1) • 1: Add 10 μL of working solutions of test product or reference product and 80 μL of microsomal working solution (liver microsomal protein concentration of 0.5 mg/mL) to wells of TO, T5, T10, T20, T30, T60, and NCF60, and only microsomal working solution is added to the Blank60 wells. Then the samples of Blank60, T10, T20, T30 and T60, except for TO and NCF60, are placed in a water bath set at 37° C. and incubate for approximately 10 mins; • 2: Add 300 μL of termination solution (acetonitrile solution containing 200 ng/mL tolbutamide and 200 ng/mL labetalol) to Sample TO, followed by 10 ul of NADPH regeneration system working solution; • 3: After incubation of Blank60, T5, T10, T20, T30 and T60 on incubation plates, add 10 μL of NADPH regeneration system working solution to each sample well to start the reaction, and 10 uL of 100 mM potassium phosphate buffer is add to the NCF60 sample wells; • 4: After incubation for appropriate times (e.g., 5, 10, 20, 30 and 60 mins), 300 μL of termination solution is add to each sample well of test product and reference product on Blank60, T5, T10, T20, T30, T60 and NCF60 plates, respectively, to terminate the reaction. • 5: All sample plates are shaken well and centrifuged at 4000 rpm for 20 min, take 100 μL of the supernatant of the test product or reference product, dilute in 300 μL of pure water for LC-MS/MS analysis, respectively. • 6: Data analysis, T½ and CLint(mic) (μL/min/mg) values are calculated based on the first-order elimination kinetics, and the equations of first-order elimination kinetics are: […]

[3] = system: Aspergillus fumigatus (ATCC MYA-4609/AF293/CBS 101355); experiment: Measurement of minimum inhibitory concentration (MIC), AF293; format: cell-based
Experimental: New streaks are made with glycerol stock solution of the strains of Aspergillus fumigatus (ATCC MYA-4609/AF 293/CBS 101355) on Sabouraud's dextrose agar (SDA), incubate at 35° C. and a humidity of 40-70% for 72 hours. Other strains are processed as the same as AF293.
RPMI1640: one packet of RPMI1640 powder is dissolved in 1 L purified water and mixed well, add 0.165M MOPS, adjust the pH to 7.0, sterilize by filtration with 0.22 um membrane, and store at 4° C. for no more than 3 months.
Physiological saline: weigh 9 g of sodium chloride powder and dissolve in 1 L of purified water, and mixed well. Sterilize at 121° C. for 30 min, store at room temperature (RT) for no more than 1 week.
Dissolve the test compound and stock solution of one control compound with DMSO and obtain solutions at a concentration of 12.8 mg/mL
The maximum concentration of each compound is 0.8 mg/mL (e.g., 150 μL of dimethyl sulfoxide+10 uL of 12.8 mg/mL compound/control). Column 1 is filled with 40 μL of compound and columns 2 to 11 with 20 μL of dimethyl sulfoxide. Transfer 20 μL of compound from column 1 to column 2 to dilute the concentration. Repeat the above steps up to column 11 to give 2× serial dilutions.
2 μL of the above 2× serial dilutions are injected into each hole of the corresponding test plate using a multichannel pipette.
Drop 5 ml of saline on the Aspergillus fumigatus SDA plate. The spores were carefully wiped off from the surface of the plate with an L-shaped coating rod. Then the suspension is transferred into a sterile tube. After shaking, let the tube stand for 5 to 10 minutes. Count the number of spores in the upper suspension with a hemocytometer and check the purity. Adjust the inoculum concentration to 0.2-2.5×10^4 spores/mL.
Inject 198 μL of diluted inoculum into each holes of the corresponding test plate using a multichannel pipette.
Incubate at 35° C. for 48 hours.
To facilitate scoring of the presence or absence of growth on the wall, a magnifying glass is used. The tested 96-well microplates were photographed and the optical density at 530 nm is read with an enzyme marker (Tecan Spark).

[4] = Liver microsomal stability test, human; format: in vitro ADME; settings: Human liver microsomes; for CLint scaled / half-life: 0.5 mg/mL protein, 37° C., NADPH
Experimental: as §1

[5] = system: Aspergillus fumigatus (ATCC-204305); experiment: Measurement of minimum inhibitory concentration (MIC), ATCC 204305; format: cell-based; settings: Aspergillus fumigatus ATCC 204305, 35° C., 48 hours
Experimental: New streaks are made with glycerol stock solution of the strains of Aspergillus [NT] MYA-4609/AF 293/CBS 101355) on Sabouraud's dextrose agar (SDA), incubate at 35° C. and a humidity of 40-70% for 72 hours. Other strains are processed as the same as AF293. RPMI1640: one packet of RPMI1640 powder is dissolved in 1 L purified water and mixed well, add 0.165M MOPS, adjust the pH to 7.0, sterilize by filtration with 0.22 um membrane, and store at 4° C. for no more than 3 months. Physiological saline: weigh 9 g of sodium chloride powder and dissolve in 1 L of purified water, and mixed well. […] Dissolve the test compound and stock solution of one control compound with DMSO and obtain solutions at a concentration of 12.8 mg/mL The maximum concentration of each compound is 0.8 mg/mL (e.g., 150 μL of dimethyl sulfoxide+10 uL of 12.8 mg/mL compound/control). […] Repeat the above steps up to column 11 to give 2× serial dilutions. 2 μL of the above 2× serial dilutions are injected into each hole of the corresponding test plate using a multichannel pipette. Drop 5 ml of saline on the Aspergillus fumigatus SDA plate. The spores were carefully wiped off from the surface of the plate with an L-shaped coating rod. Then the suspension is transferred into a sterile tube. After shaking, let the tube stand for 5 to 10 minutes. Count the number of spores in the upper suspension with a hemocytometer and check the purity. Adjust the inoculum concentration to 0.2-2.5×10^4 spores/mL. Inject 198 μL of diluted inoculum into each holes of the corresponding test plate using a multichannel pipette. Incubate at 35° C. for 48 hours. […] To facilitate scoring of the presence or absence of growth on the wall, a magnifying glass is used. The tested 96-well microplates were photographed and the optical density at 530 nm is read with an enzyme marker (Tecan Spark).

[6] = CBS101355, Aspergillus fumigatus AF293, 35° C., 48 hours, RPMI1640, read-out: AF293: MIC

## Cc1cc(-c2ccccc2)c(C(=O)C(=O)Nc2ccc3c(c2)CC2CN(c4ncc(F)cn4)CCN32)n1C (stereo not drawn) [Example 1, 2-(1,5-dimethyl-3-phenyl-1H-pyrrol-2-yl)-N-(2-(5-fluoropyrimidin-2-yl)-1,2,3,4,10,10a-hexahydropyrazino[1,2-a]indol-8-yl)-2-oxoacetamide]
[1]
  AUC: 48300 ng·h/mL
  Cmax: 3860 ng/mL
  Tmax: 140 min
  half-life: 389 min
[2]
  CLint scaled: 65.2 mL/min/kg
  half-life: 38.3 min
  Remaining, (T = 60 min): 34.4%
[3]; [6]
  MIC: 0.03 µg/mL (≈ 0.0588 µM)
[4]
  CLint scaled: 32.6 mL/min/kg
  half-life: 38.3 min
  Remaining, (T = 60 min): 35.7%

## Cc1cc(-c2ccccc2)c(C(=O)C(=O)Nc2ccc3c(c2)OCC2CN(c4ncc(C(F)(F)F)cn4)CCN32)n1C (stereo not drawn) [Example 9]
[2]
  CLint scaled: 81.1 mL/min/kg
  half-life: 30.7 min
  Remaining, (T = 60 min): 24.0%
[3]; [6]
  MIC: 0.06 µg/mL (≈ 0.104 µM)
[4]
  CLint scaled: 52.9 mL/min/kg
  half-life: 23.6 min
  Remaining, (T = 60 min): 16.5%

## Cc1cc(-c2ccccc2)c(C(=O)C(=O)Nc2cc(F)c3c(c2)OC[C@H]2CN(c4ncc(F)cn4)CCN32)n1C [Example 25, (R)-2-(1,5-dimethyl-3-phenyl-1H-pyrrol-2-yl)-N-(10-fluoro-3-(5-fluoropyrimidin-2-yl)-1,2,3,4,4a,5-hexahydrobenzo[b]pyrazino[1,2-d] [1,4]oxazin-8-yl)-2-oxoacetamide]
[3]; Aspergillus fumigatus, CBS101355, 48 h, read-out: AF293: MIC, Aspergillus fumigatus AF293, 35° C., 48 hours, RPMI1640
  MIC: 0.06 µg/mL (≈ 0.11 µM)

## Cc1cc(-c2ccccc2)c(C(=O)C(=O)Nc2ccc3c(c2)COC[C@H]2CN(c4ncc(F)cn4)CCN32)n1C [Example 26]
[3]; [6]
  MIC: 0.03 µg/mL (≈ 0.0555 µM)

## Cc1cc(-c2ccccc2)c(C(=O)C(=O)Nc2ccc3c(c2)COC[C@@H]2CN(c4ncc(F)cn4)CCN32)n1C [Example 27]
[3]; [6]
  MIC: 0.03 µg/mL (≈ 0.0555 µM)

## Cc1cc(-c2ccccc2)c(C(=O)C(=O)Nc2ccc3c(c2)OC[C@H]2CN(c4ncncn4)CCN32)n1C [Example 28, (R)—N-(3-(1,3,5-triazin-2-yl)-1,2,3,4,4a,5-hexahydrobenzo[b]pyrazino[1,2-d] [1,4]oxazin-8-yl)-2-(1,5-dimethyl-3-phenyl-1H-pyrrol-2-yl)-2-oxoacetamide]
[3]; [6]
  MIC: 0.25 µg/mL (≈ 0.491 µM)

## Cc1cc(-c2ccccc2)c(C(=O)C(=O)Nc2ccc3c(c2)CN(C)CC2CN(c4ncc(F)cn4)CCN32)n1C (stereo not drawn) [Example 31]
[3]; Aspergillus fumigatus AF293, 35° C., 48 hours, RPMI1640
  AF293: MIC: 1 µg/mL

## Cc1cc(-c2ccccc2F)c(C(=O)C(=O)Nc2ccc3c(c2)OC[C@H]2CN(c4ncc(F)cn4)CCN32)n1C [Example 35, (R)-2-(3-(2-fluorophenyl)-1,5-dimethyl-1H-pyrrol-2-yl)-N-(3-(5-fluoropyrimidin-2-yl)-1,2,3,4,4a, 5-hexahydrobenzo [b]pyrazino[1,2-d] [1,4]oxazin-8-yl)-2-oxoacetamide]
[1]
  AUC: 12800 ng·h/mL
  Cmax: 1520 ng/mL
  Tmax: 50 min
  half-life: 297 min
[5]; ATCC204305
  MIC: 0.016 µg/mL (≈ 0.0294 µM)
[3]; [6]
  MIC: 0.008 µg/mL (≈ 0.0147 µM)

## Cc1cc(-c2cccc(F)c2)c(C(=O)C(=O)Nc2ccc3c(c2)OC[C@H]2CN(c4ncc(F)cn4)CCN32)n1C [Example 36, (R)-2-(3-(3-fluorophenyl)-1,5-dimethyl-1H-pyrrol-2-yl)-N-(3-(5-fluoropyrimidin-2-yl)-1,2,3,4,4a,5-hexahydrobenzo[b]pyrazino[1,2-d] [1,4]oxazin-8-yl)-2-oxoacetamide]
[3]; [6]
  MIC: 0.016 µg/mL (≈ 0.0294 µM)

## Cc1cc(-c2ccc(F)cc2)c(C(=O)C(=O)Nc2ccc3c(c2)OC[C@H]2CN(c4ncc(F)cn4)CCN32)n1C [Example 37, (R)-2-(3-(4-fluorophenyl)-1,5-dimethyl-1H-pyrrol-2-yl)-N-(3-(5-fluoropyrimidin-2-yl)-1,2,3,4,4a,5-hexahydrobenzo[b]pyrazino[1,2-d] [1,4]oxazin-8-yl)-2-oxoacetamide]
[3]; [6]
  MIC: 0.016 µg/mL (≈ 0.0294 µM)

## Cc1cc(-c2ccccc2F)c(C(=O)C(=O)Nc2ccc3c(c2)COCC2CN(c4ncc(F)cn4)CCN32)n1C (stereo not drawn) [Example 39, 2-(3-(2-fluorophenyl)-1,5-dimethyl-1H-pyrrol-2-yl)-N-(3-(5-fluoropyrimidin-2-yl)-1,2,3,4,4a,5-hexahydro-7H-benzo[e]pyrazine[2,1-c] [1,4]oxazolin-9-yl)-2-oxoacetamide]
[5]
  ATCC 204305: MIC: 0.03 µg/mL

## Cc1cc(-c2ccccc2F)c(C(=O)C(=O)Nc2cnc3c(c2)OCC2CN(c4ncc(F)cn4)CCN32)n1C (stereo not drawn) [Example 40]
[5]
  ATCC 204305: MIC: 0.06 µg/mL
